Experimental data: ChEMBL document CHEMBL1137340, “Binding of 13-amidohuprines to acetylcholinesterase: exploring the ligand-induced conformational change of the gly117-gly118 peptide bond in the oxyanion hole” (J Med Chem, 2006)

Columns and labels:
[1] = target: T1, Acetylcholinesterase (Bos taurus, UniProt P23795)
T1 sequence (P23795 whole entry): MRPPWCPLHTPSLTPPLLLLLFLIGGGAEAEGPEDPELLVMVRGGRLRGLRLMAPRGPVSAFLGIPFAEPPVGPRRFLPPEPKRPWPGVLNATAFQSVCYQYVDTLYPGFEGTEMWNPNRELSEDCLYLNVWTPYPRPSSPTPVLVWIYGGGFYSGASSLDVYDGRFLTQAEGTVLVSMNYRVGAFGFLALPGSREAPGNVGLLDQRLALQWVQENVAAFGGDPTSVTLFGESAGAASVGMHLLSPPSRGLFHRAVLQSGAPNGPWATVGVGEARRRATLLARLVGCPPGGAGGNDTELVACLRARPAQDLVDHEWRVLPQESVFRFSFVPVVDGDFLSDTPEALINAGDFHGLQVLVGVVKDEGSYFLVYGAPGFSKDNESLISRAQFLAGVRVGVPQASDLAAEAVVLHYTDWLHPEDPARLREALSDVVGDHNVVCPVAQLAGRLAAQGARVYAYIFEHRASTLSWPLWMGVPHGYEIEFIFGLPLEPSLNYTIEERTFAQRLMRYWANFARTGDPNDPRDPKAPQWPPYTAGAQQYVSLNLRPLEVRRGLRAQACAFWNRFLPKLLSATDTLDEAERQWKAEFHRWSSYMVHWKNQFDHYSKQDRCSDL
Description: Inhibition of bovine erythrocyte AChE

[2] = target: T1, Acetylcholinesterase; remark: listed apart in the source
Description: Inhibition of bovine erythrocyte AChE after 45 mins

[3] = target: Cholinesterase (Homo sapiens, UniProt P06276)
Description: Inhibition of human serum BChE

[4] = target: Acetylcholinesterase (Homo sapiens, UniProt P22303)
Chain of Acetylcholinesterase (Homo sapiens, UniProt P22303) (P22303 whole entry): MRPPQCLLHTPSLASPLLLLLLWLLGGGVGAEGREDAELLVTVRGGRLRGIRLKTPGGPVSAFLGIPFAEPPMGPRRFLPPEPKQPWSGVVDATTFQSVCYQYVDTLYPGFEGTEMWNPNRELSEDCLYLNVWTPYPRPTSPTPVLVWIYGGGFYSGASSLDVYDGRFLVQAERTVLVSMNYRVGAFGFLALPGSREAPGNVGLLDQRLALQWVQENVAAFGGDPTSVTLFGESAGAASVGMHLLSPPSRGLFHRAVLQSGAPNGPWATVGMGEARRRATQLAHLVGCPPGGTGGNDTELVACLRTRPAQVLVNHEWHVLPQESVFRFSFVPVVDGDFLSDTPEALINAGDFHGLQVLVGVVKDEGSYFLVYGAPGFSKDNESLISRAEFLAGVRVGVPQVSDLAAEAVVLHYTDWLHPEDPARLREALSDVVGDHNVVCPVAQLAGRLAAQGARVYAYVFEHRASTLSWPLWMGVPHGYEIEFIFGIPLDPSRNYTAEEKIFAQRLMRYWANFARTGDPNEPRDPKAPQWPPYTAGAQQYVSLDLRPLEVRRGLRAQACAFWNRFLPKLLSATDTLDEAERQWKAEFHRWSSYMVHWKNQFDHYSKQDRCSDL
Description: Inhibition of human erythrocyte AChE

Chain of Cholinesterase (P06276 whole entry): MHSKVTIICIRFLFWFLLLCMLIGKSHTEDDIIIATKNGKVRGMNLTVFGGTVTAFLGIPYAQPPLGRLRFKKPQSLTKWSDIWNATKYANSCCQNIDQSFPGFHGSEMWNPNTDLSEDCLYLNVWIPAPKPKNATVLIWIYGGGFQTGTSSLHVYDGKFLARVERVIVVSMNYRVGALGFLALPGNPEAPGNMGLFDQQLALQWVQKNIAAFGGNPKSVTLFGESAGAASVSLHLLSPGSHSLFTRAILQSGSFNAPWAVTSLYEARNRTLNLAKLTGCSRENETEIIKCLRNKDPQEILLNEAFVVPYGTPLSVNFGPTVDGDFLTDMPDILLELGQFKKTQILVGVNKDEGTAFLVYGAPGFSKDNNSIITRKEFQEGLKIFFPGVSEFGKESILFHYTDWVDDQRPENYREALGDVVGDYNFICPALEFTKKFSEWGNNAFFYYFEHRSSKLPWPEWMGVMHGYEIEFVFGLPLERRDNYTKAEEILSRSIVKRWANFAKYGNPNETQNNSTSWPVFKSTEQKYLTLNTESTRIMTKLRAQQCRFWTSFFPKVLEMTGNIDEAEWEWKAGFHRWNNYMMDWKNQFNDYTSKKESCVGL

Structure (SMILES)	IC50 [1]	IC50 [2]	IC50 [3]	IC50 [4]
CCC1=C[C@@H]2Cc3nc4ccccc4c(N)c3[C@H](C1)C2	27.4 nM			
CC(=O)NC1C2C=C(C)CC1c1c(nc3cc(Cl)ccc3c1N)C2 (racemic; form 2)		1330 nM	> 10000 nM	
CC(=O)NC1C2C=C(C)CC1c1c(nc3cc(Cl)ccc3c1N)C2 (racemic; form 1)	1690 nM	1370 nM	8490 nM	
CCC1=C[C@@H]2Cc3nc4cc(Cl)ccc4c(N)c3[C@H](C1)C2	1.3 nM			
CCC1=C[C@@H]2Cc3nc4cc(C)ccc4c(N)c3[C@H](C1)C2	4.5 nM			
CC1=CC2Cc3nc4cc(Cl)ccc4c(N)c3C(C1)C2NC=O (racemic; form 2)			3980 nM	
CC1=C[C@@H]2Cc3nc4cc(Cl)ccc4c(N)c3[C@H](C1)C2	1.15 nM			
CC1=CC2Cc3nc4cc(Cl)ccc4c(N)c3C(C1)C2N (racemic; form 1)	389 nM	447 nM	6480 nM	225 nM
CC1=CC2Cc3nc4cc(Cl)ccc4c(N)c3C(C1)C2NC=O (racemic; form 1)			> 10000 nM	98 nM
CC1=CC2Cc3nc4cc(Cl)ccc4c(N)c3C(C1)C2N (racemic; form 2)	482 nM	478 nM	601 nM	
CC1=CC2Cc3nc4cc(Cl)ccc4c(N)c3C(C1)C2NS(C)(=O)=O (racemic; form 2)	1370 nM	2450 nM		
CC12CC3Cc4nc5cc(Cl)ccc5c(N)c4C(C1)C3N2 (racemic)	5680 nM	4380 nM	> 10000 nM	
CC12CC3Cc4nc5cc(Cl)ccc5c(N)c4C(C1)C3N2S(C)(=O)=O (racemic)	1320 nM	304 nM	9220 nM	
CCC1=CC2Cc3nc4cc(Cl)ccc4c(N)c3C(C1)C2 (racemic)	2.77 nM			
CC1=CC2Cc3nc4cc(Cl)ccc4c(N)c3C(C1)C2NS(C)(=O)=O (racemic; form 1)	118 nM	39 nM	> 10000 nM	40.5 nM
